In US10533010B2, “Substituted indole Mcl-1 inhibitors” (Vanderbilt University, priority 2014, dated 2020) one finds Ki data, which are given here for 22 compounds.

This experiment addresses recombinant Mcl-1 (residues 172-327) (Homo sapiens (Human), UniProt Q07820). The experiment in a line: Fluorescence polarization anisotropy competition assay (FITC-Bak or FITC-Bim BH3 peptide) with Mcl-1. The experiment is classed as binding. To be noted: Table 2; Ki bins given in nM; FITC-Bak or FITC-Bim peptide competition; Ki converted from IC50; read-out: Ki for Inhibition of Mcl-1.

Where only a bound is given, the exact number is not on record here.

Sequence of recombinant Mcl-1 (residues 172-327) (Q07820 172-327): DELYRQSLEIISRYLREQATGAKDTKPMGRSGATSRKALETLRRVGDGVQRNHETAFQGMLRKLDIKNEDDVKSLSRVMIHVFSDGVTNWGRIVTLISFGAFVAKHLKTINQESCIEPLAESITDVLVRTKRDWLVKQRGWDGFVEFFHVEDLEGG

As usually defined, the Ki is a dissociation constant, usually derived from enzyme kinetics or from competition with a known ligand. Regarding `Cc1cc(OCCCc2c3n(c4c(-c5c(C)nn(C)c5C)c(Cl)ccc24)C[C@@H](C)N(Cc2ccc(C(=O)O)cc2)C3=O)cc(C)c1Cl` [I-120, (R)-4-((7-chloro-10-(3-(4-chloro-3,5-dimethylphenoxy)propyl)-3-methyl-1-oxo-6-(1,3,5-trimethyl-1H-pyrazol-4-yl)-3,4-dihydropyrazino[1,2-a]indol-2(1H)-yl)methyl)benzoic acid], the Ki was less than 50 nM.
In the case of `Cc1cc(OCCCc2c3n(c4c(-c5c(C)nn(C)c5C)c(Cl)ccc24)C[C@@H](C)N(Cc2cccc(C(=O)O)c2)C3=O)cc(C)c1Cl` [I-121, (R)-3-((7-chloro-10-(3-(4-chloro-3,5-dimethylphenoxy)propyl)-3-methyl-1-oxo-6-(1,3,5-trimethyl-1H-pyrazol-4-yl)-3,4-dihydropyrazino[1,2-a]indol-2(1H)-yl)methyl)benzoic acid] it was less than 50 nM; in that of `Cc1cc(OCCCc2c3n(c4c(-c5c(C)nn(C)c5C)c(Cl)ccc24)C[C@@H](C)N(Cc2ccc(C(=O)O)cn2)C3=O)cc(C)c1Cl` [I-122, (R)-6-((7-chloro-10-(3-(4-chloro-3,5-dimethylphenoxy)propyl)-3-methyl-1-oxo-6-(1,3,5-trimethyl-1H-pyrazol-4-yl)-3,4-dihydropyrazino[1,2-a]indol-2(1H)-yl)methyl)nicotinic acid], less than 50 nM.
`Cc1cc(OCCCc2c3n(c4c(-c5c(C)nn(C)c5C)c(Cl)ccc24)C[C@@H](C)N(Cc2ccc(C(=O)O)o2)C3=O)cc(C)c1Cl` [I-123, (R)-5-((7-chloro-10-(3-(4-chloro-3,5-dimethylphenoxy)propyl)-3-methyl-1-oxo-6-(1,3,5-trimethyl-1H-pyrazol-4-yl)-3,4-dihydropyrazino[1,2-a]indol-2(1H)-yl)methyl)furan-2-carboxylic acid]: the Ki was less than 50 nM.
As for `Cc1cc(OCCCc2c3n(c4c(-c5c(C)nn(C)c5C)c(Cl)ccc24)CCC(C)N(Cc2ccc(C(=O)O)cn2)C3=O)cc(C)c1Cl` (stereo not shown) [I-124, 6-((8-chloro-11-(3-(4-chloro-3,5-dimethylphenoxy)propyl)-3-methyl-1-oxo-7-(1,3,5-trimethyl-1H-pyrazol-4-yl)-4,5-dihydro-1H-[1,4]diazepino[1,2-a]indol-2(3H)-yl)methyl)nicotinic acid], the inhibitory constant (Ki) was less than 50 nM.
For `Cc1cc(OCCCc2c3n(c4c(-c5c(C)nn(C)c5C)c(Cl)ccc24)CCC(C)N(Cc2cccc(C(=O)O)c2)C3=O)cc(C)c1Cl` (stereo not shown) [I-125, 3-((8-chloro-11-(3-(4-chloro-3,5-dimethylphenoxy)propyl)-3-methyl-1-oxo-7-(1,3,5-trimethyl-1H-pyrazol-4-yl)-4,5-dihydro-1H-[1,4]diazepino[1,2-a]indol-2(3H)-yl)methyl)benzoic acid], the Ki is less than 50 nM.
The value for `Cc1cc(OCCCc2c3n(c4c(-c5c(C)nn(C)c5C)c(Cl)ccc24)CCC(C)N(Cc2ccc(C(=O)O)o2)C3=O)cc(C)c1Cl` (stereo not shown) [I-126, 5-((8-chloro-1-(3-(4-chloro-3,5-dimethylphenoxy)propyl)-3-methyl-1-oxo-7-(1,3,5-trimethyl-1H-pyrazol-4-yl)-4,5-dihydro-1H-[1,4]diazepino[1,2-a]indol-2(3H)-yl)methyl)furan-2-carboxylic acid] was less than 50 nM.
In the case of `Cc1cc(OCCCc2c3n(c4c(-c5c(C)nn(C)c5C)c(Cl)ccc24)CCC(C)N(Cc2ccc(C(=O)O)cc2)C3=O)cc(C)c1Cl` (stereo not shown) [I-127, 4-((8-chloro-11-(3-(4-chloro-3,5-dimethylphenoxy)propyl)-3-methyl-1-oxo-7-(1,3,5-trimethyl-1H-pyrazol-4-yl)-4,5-dihydro-1H-[1,4]diazepino[1,2-a]indol-2(3H)-yl)methyl)benzoic acid] it was less than 50 nM; in that of `Cc1cc(OCCCc2c3n(c4c(-c5c(C)nn(C)c5C)c(Cl)ccc24)C(C)CN(Cc2ccc(C(=O)O)o2)C3=O)cc(C)c1Cl` (stereo not shown) [I-128, 5-((7-chloro-10-(3-(4-chloro-3,5-dimethylphenoxy)propyl)-4-methyl-1-oxo-6-(1,3,5-trimethyl-1H-pyrazol-4-yl)-3,4-dihydropyrazino[1,2-a]indol-2(1H)-yl)methyl)furan-2-carboxylic acid], less than 50 nM.
Consider `Cc1cc(OCCCc2c3n(c4c(-c5c(C)nn(C)c5C)c(Cl)ccc24)C(C)CN(Cc2ccc(C(=O)O)cn2)C3=O)cc(C)c1Cl` (stereo not shown) [I-129, 6-((7-chloro-10-(3-(4-chloro-3,5-dimethylphenoxy)propyl)-4-methyl-1-oxo-6-(1,3,5-trimethyl-1H-pyrazol-4-yl)-3,4-dihydropyrazino[1,2-a]indol-2(1H)-yl)methyl)nicotinic acid], for which the Ki is less than 50 nM.
As for `Cc1cc(OCCCc2c3n(c4c(-c5c(C)nn(C)c5C)c(Cl)ccc24)C(C)CN(Cc2ccc(C(=O)O)cc2)C3=O)cc(C)c1Cl` (stereo not shown) [I-130, 4-((7-chloro-10-(3-(4-chloro-3,5-dimethylphenoxy)propyl)-4-methyl-1-oxo-6-(1,3,5-trimethyl-1H-pyrazol-4-yl)-3,4-dihydropyrazino[1,2-a]indol-2(1H)-yl)methyl)benzoic acid], the Ki was less than 50 nM.
In the case of `Cc1cc(OCCCc2c3n(c4c(-c5c(C)nn(C)c5C)c(Cl)ccc24)C(C)CN(Cc2cccc(C(=O)O)c2)C3=O)cc(C)c1Cl` (stereo not shown) [I-131, 3-((7-chloro-10-(3-(4-chloro-3,5-dimethylphenoxy)propyl)-4-methyl-1-oxo-6-(1,3,5-trimethyl-1H-pyrazol-4-yl)-3,4-dihydropyrazino[1,2-a]indol-2(1H)-yl)methyl)benzoic acid] it was less than 50 nM; in that of `Cc1cc(OCCCc2c3n(c4c(-c5c(C)nn(C)c5C)c(Cl)ccc24)CC(C)CN(Cc2ccc(C(=O)O)o2)C3=O)cc(C)c1Cl` (stereo not shown) [I-132, 5-((8-chloro-1-(3-(4-chloro-3,5-dimethylphenoxy)propyl)-4-methyl-1-oxo-7-(1,3,5-trimethyl-1H-pyrazol-4-yl)-4,5-dihydro-1H-[1,4]diazepino[1,2-a]indol-2(3H)-yl)methyl)furan-2-carboxylic acid], less than 50 nM; in that of `Cc1cc(OCCCc2c3n(c4c(-c5c(C)nn(C)c5C)c(Cl)ccc24)CC(C)CN(Cc2ccc(C(=O)O)cc2)C3=O)cc(C)c1Cl` (stereo not shown) [I-133, 4-((8-chloro-11-(3-(4-chloro-3,5-dimethylphenoxy)propyl)-4-methyl-1-oxo-7-(1,3,5-trimethyl-1H-pyrazol-4-yl)-4,5-dihydro-1H-[1,4]diazepino[1,2-a]indol-2(3H)-yl)methyl)benzoic acid], less than 50 nM.
Regarding `Cc1cc(OCCCc2c3n(c4c(-c5c(C)nn(C)c5C)c(Cl)ccc24)CC(C)CN(Cc2ccc(C(=O)O)cn2)C3=O)cc(C)c1Cl` (stereo not shown) [I-134, 6-((8-chloro-11-(3-(4-chloro-3,5-dimethylphenoxy)propyl)-4-methyl-1-oxo-7-(1,3,5-trimethyl-1H-pyrazol-4-yl)-4,5-dihydro-1H-[1,4]diazepino[1,2-a]indol-2(3H)-yl)methyl)nicotinic acid], the Ki was less than 50 nM.
As for `Cc1cc(OCCCc2c3n(c4c(-c5c(C)nn(C)c5C)c(Cl)ccc24)CC(C)CN(Cc2cccc(C(=O)O)c2)C3=O)cc(C)c1Cl` (stereo not shown) [I-135, 3-((8-chloro-11-(3-(4-chloro-3,5-dimethylphenoxy)propyl)-4-methyl-1-oxo-7-(1,3,5-trimethyl-1H-pyrazol-4-yl)-4,5-dihydro-1H-[1,4]diazepino[1,2-a]indol-2(3H)-yl)methyl)benzoic acid], the inhibitory constant (Ki) is less than 50 nM.
In the case of `Cc1cc(OCCCc2c3n(c4c(-c5c(C)nn(C)c5C)c(Cl)ccc24)C[C@H](C)N(Cc2cccc(C(=O)O)c2)C3=O)cc(C)c1Cl` [I-136, (S)-3-((7-chloro-10-(3-(4-chloro-3,5-dimethylphenoxy)propyl)-3-methyl-1-oxo-6-(1,3,5-trimethyl-1H-pyrazol-4-yl)-3,4-dihydropyrazino[1,2-a]indol-2(1H)-yl)methyl)benzoic acid], the inhibitory constant (Ki) is less than 50 nM.
In the case of `Cc1cc(OCCCc2c3n(c4c(-c5c(C)nn(C)c5C)c(Cl)ccc24)C[C@H](C)N(Cc2ccc(C(=O)O)cn2)C3=O)cc(C)c1Cl` [I-137, (S)-6-((7-chloro-10-(3-(4-chloro-3,5-dimethylphenoxy)propyl)-3-methyl-1-oxo-6-(1,3,5-trimethyl-1H-pyrazol-4-yl)-3,4-dihydropyrazino[1,2-a]indol-2(1H)-yl)methyl)nicotinic acid] it was less than 50 nM; in that of `Cc1cc(OCCCc2c3n(c4c(-c5c(C)nn(C)c5C)c(Cl)ccc24)C[C@H](C)N(Cc2ccc(C(=O)O)o2)C3=O)cc(C)c1Cl` [I-138, (S)-5-((7-chloro-10-(3-(4-chloro-3,5-dimethylphenoxy)propyl)-3-methyl-1-oxo-6-(1,3,5-trimethyl-1H-pyrazol-4-yl)-3,4-dihydropyrazino[1,2-a]indol-2(1H)-yl)methyl)furan-2-carboxylic acid], less than 50 nM; in that of `Cc1cc(OCCCc2c3n(c4c(-c5c(C)nn(C)c5C)c(Cl)ccc24)C[C@H](C)N(Cc2ccc(C(=O)O)cc2)C3=O)cc(C)c1Cl` [I-139, (S)-4-((7-chloro-10-(3-(4-chloro-3,5-dimethylphenoxy)propyl)-3-methyl-1-oxo-6-(1,3,5-trimethyl-1H-pyrazol-4-yl)-3,4-dihydropyrazino[1,2-a]indol-2(1H)-yl)methyl)benzoic acid], less than 50 nM.
In the case of `Cc1cc(OCCCc2c3n(c4c(-c5c(C)nn(C)c5C)c(Cl)ccc24)CCN(Cc2ccc(C(=O)O)cc2)C3=O)cc(C)c1Cl` [I-140, 4-((7-chloro-10-(3-(4-chloro-3,5-dimethylphenoxy)propyl)-1-oxo-6-(1,3,5-trimethyl-1H-pyrazol-4-yl)-3,4-dihydropyrazino[1,2-a]indol-2(1H)-yl)methyl)benzoic acid], the inhibition constant Ki is less than 50 nM.
In the case of `Cc1cc(OCCCc2c3n(c4c(-c5c(C)nn(C)c5C)c(Cl)ccc24)CCN(Cc2cccc(C(=O)O)c2)C3=O)cc(C)c1Cl` [I-141, 3-((7-chloro-10-(3-(4-chloro-3,5-dimethylphenoxy)propyl)-1-oxo-6-(1,3,5-trimethyl-1H-pyrazol-4-yl)-3,4-dihydropyrazino[1,2-a]indol-2(1H)-yl)methyl)benzoic acid] it was less than 50 nM.
